The term IC50 denotes the concentration that inhibits the measured activity by half. A lower IC50 goes with higher potency.

Our source for the IC50 values is patent US20260035365A1, “1H-PYRROLO[3,2-B]PYRIDINE DERIVATIVES AS IRREVERSIBLE INHIBITORS OF MUTANT EGFR FOR THE TREATMENT OF CANCER” (Bayer Aktiengesellschaft, priority 2022, published 2026).

Assay [1] concerns BA/F3 (insSVD) cells. The assay is described as follows: Ba/F3 cell survival assay (Cell Titer-Glo), EGFR-insSVD. It is filed as cell-based. As to conditions: Mus musculus, BaF3, 48 h, without IL-3, with EGF. How it is done:
293T cells from ATCC were transfected with pBABEpuro expression constructs for WT EGFR or EGFR-insSVD, or EGFR-insSVD T790M, and pCL-Eco packaging vector using Fugene-6 transfection reagent from Promega. Plates were incubated at 37° C. for 48 h. Retrovirus was harvested by filtering the media supernatant through a 0.45 μm filter.
Ba/F3 cells purchased from DSMZ were grown in RPMI+10% FBS+10 ng/mL IL-3 and infected with filtered retroviral supernatant at a 1:2 dilution. Polybrene was added to a concentration of 8 μg/mL, plates were spun for 90 min, and incubated for 16 h at 37° C. 2 μg/mL puromycin was added to the infected cells 24 h after infection and cells were continually grown in the presence of puromycin and 10 ng/mL IL-3. Following stably expressing Ba/F3 cell lines were generated: Ba/F3-EGFR-WT, Ba/F3-EGFR-insSVD, Ba/F3-EGFR-insSVD T790M, (Ba/F3-vector-control).
For cell survival assays, Ba/F3 cells were grown to a density of 1-2 million cells per mL, spun down and resuspended in media without IL-3, and replated at a concentration of 200,000-500,000 cells per mL. The cells ectopically expressing WT EGFR, EGFR-insSVD, or EGFR-insSVD T790M were plated with 10 ng/mL Millipore Culture grade EGF. The cells ectopically expressing pBABEpuro empty vector were plated with 10 ng/mL IL-3.
2 days later, cells were plated in 50 μL in a 384 well plate at a concentration of 4000 cells per well for cells assayed in the absence of IL-3 and 2000 cells per well for cells assayed in the presence of IL-3. 100 nL of compound was added to each well using a 100 nL pin head, and plates were incubated at 37° C. for 48 h.
Cell viability was measured by adding 20 μL of Cell Titer-Glo Luminescent Cell Viability Reagent diluted 1:3 in PBS. Plates were sealed with Perkin Elmer Top-Seal, inverted several times to mix, and immediately centrifuged at 1000 rpm for 2 min. Plates were incubated in low light conditions for 8-10 min and luminescence was measured.
A general note: Cellular ATP, detected with luciferase, serves as a proxy for viable cell number.

The target in assay [2] is mutEGFR (D770_N771insNPG, T790). The experiment in a line: mutEGFR (D770_N771insNPG, T790) kinase assay. The format is biochemical, human.
Chain of mutEGFR (D770_N771insNPG, T790) (P00533 with tags, fused parts or gaps INS770NPG limits assumed): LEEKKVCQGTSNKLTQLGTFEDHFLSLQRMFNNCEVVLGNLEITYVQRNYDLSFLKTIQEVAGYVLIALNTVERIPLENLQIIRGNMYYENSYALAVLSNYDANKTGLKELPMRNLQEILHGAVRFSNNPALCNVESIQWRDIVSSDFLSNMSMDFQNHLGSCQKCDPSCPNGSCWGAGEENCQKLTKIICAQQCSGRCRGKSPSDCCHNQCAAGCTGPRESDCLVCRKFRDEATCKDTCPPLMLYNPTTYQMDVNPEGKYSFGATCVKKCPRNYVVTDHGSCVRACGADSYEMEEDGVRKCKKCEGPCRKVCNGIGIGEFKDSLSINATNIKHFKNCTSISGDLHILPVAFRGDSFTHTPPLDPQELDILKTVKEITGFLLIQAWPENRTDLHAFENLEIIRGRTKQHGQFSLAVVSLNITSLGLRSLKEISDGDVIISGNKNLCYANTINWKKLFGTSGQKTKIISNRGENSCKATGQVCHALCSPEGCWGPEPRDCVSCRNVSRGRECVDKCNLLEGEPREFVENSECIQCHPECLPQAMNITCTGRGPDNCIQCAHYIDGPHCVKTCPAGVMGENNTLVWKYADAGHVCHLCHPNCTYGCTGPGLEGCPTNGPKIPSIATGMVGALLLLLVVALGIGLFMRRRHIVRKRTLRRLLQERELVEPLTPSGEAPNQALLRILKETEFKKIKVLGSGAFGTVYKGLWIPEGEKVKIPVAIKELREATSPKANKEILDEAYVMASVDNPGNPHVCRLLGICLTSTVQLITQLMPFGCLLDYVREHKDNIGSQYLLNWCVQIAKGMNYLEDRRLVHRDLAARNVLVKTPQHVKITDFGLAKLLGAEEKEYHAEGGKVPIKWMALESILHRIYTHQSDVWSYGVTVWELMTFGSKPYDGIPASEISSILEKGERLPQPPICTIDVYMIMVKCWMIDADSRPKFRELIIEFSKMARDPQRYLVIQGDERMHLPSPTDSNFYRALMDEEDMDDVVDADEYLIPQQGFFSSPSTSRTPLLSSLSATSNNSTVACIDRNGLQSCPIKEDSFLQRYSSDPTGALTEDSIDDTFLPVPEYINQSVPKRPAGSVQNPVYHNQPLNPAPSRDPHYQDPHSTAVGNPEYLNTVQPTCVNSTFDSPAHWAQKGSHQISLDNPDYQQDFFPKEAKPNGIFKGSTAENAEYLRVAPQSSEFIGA
The target in assay [3] is mutEGFR (D770_N771insSVD) (Homo sapiens, UniProt P00533, INS767SVD). The assay is described as follows: Exon20-mutant-EGFR (D770_N771insSVD) TR-FRET kinase assay. The format is biochemical. The following applies: 2 mM ATP, 15 min preincubation. An excerpt: Inhibitory activity of compounds of the present invention against an Epidermal Growth Factor Receptor (EGFR) with an insertion of the amino acids sequence SVD between D770 and N771 (SEQ ID No. 5) was quantified employing the TR-FRET based kinase activity assay as described in the following paragraphs.
Chain of mutEGFR (D770_N771insSVD) (P00533 with tags, fused parts or gaps INS767SVD limits assumed): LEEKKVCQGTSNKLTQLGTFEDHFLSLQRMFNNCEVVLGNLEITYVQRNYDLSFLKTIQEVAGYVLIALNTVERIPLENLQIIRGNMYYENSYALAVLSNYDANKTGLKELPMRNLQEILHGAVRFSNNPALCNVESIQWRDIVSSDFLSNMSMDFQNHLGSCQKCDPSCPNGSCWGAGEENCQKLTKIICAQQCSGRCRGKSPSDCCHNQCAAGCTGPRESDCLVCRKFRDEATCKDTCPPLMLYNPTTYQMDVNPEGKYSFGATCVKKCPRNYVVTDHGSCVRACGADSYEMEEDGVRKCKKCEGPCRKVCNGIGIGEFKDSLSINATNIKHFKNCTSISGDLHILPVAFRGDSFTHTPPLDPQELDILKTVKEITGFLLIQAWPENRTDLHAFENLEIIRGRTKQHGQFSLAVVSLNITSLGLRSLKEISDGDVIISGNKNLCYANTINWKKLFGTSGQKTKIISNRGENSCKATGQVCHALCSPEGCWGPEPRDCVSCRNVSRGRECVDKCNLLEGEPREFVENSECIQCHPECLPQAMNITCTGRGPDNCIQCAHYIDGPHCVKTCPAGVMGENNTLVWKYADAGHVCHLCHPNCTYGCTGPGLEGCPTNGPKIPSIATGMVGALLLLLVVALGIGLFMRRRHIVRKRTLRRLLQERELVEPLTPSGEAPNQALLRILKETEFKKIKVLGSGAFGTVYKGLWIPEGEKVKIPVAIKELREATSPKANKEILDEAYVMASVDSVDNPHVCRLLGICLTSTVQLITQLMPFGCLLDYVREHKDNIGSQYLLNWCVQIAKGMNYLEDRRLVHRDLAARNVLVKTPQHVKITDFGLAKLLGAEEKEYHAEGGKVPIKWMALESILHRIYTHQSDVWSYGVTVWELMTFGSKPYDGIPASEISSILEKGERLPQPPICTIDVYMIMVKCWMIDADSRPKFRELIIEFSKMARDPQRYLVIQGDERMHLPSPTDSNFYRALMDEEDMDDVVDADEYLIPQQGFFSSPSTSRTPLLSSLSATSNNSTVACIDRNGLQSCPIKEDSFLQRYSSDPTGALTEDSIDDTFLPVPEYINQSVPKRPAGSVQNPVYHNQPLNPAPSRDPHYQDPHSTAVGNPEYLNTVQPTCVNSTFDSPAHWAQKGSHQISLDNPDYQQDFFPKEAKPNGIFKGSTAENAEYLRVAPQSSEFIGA
A recombinant fusion protein of N-terminal Glutathion-S-Transferase (GST) and a fragment of human EGFR variant (amino acids R669 to A1210 with insertion of the amino acids sequence SVD between D770 and N771 (SEQ ID No. 5) (“EGFR ins SVD”), expressed in Sf9 insect cells and purified via affinity chromatography using Glutathion Sepharose as described above, was used as a kinase. As substrate for the kinase reaction the biotinylated peptide biotin-Ahx-AEEEEYFELVAKKK (C-terminus in amide form) (SEQ ID No. 6) was used which can be purchased e.g. form the company Biosynthan GmbH (Berlin-Buch, Germany).
For the assay 50 nl of a 100-fold concentrated solution of the test compound in DMSO was pipetted into either a black low volume 384 well microtiter plate or a black 1536 well microtiter plate (both Greiner Bio-One, Frickenhausen, Germany), 2 μl of a solution of EGFR in aqueous assay buffer [50 mM Hepes pH 7.0, 10 mM MgCl2, 1 mM dithiothreitol, 0.5 mM EGTA, 0.3 mM activated sodium ortho-vanadate, 0.005% (w/v) bovine serum albumin, 0.005% (v/v) Tween-20] were added and the mixture was incubated for 15 min at 22° C. to allow pre binding of the test compounds to the enzyme before the start of the kinase reaction. […] The concentration of EGFR was adjusted depending of the activity of the enzyme lot and was chosen appropriate to have the assay in the linear range, typical concentration was 15 pg/μl. The reaction was stopped by the addition of 3 μl of a solution of HTRF detection reagents (83.3 nM streptavidine-XL665 [Cisbio Bioassays, Codolet, France] and 1.67 nM PT66-Tb-Cryptate, a terbium-cryptate labelled anti-phospho-tyrosine antibody from Cisbio Bioassays [instead of the PT66 Tb cryptate PT66 Eu Chelate from Perkin Elmer can also be used]) in an aqueous EDTA-solution (133.3 mM EDTA, 0.2% (w/v) bovine serum albumin in 50 mM HEPES pH 7.5).
The resulting mixture was incubated 1 h at 22° C. to allow the binding of the biotinylated phosphorylated peptide to the streptavidine-XL665 and the PT66-Tb-Cryptate. Subsequently, the amount of phosphorylated substrate was evaluated by measurement of the resonance energy transfer from the PT66-Tb-Cryptate to the streptavidine-XL665. Therefore, the fluorescence emissions at 620 nm and 665 nm after excitation at 337 nm were measured in a HTRF reader, e.g. a Pherastar (BMG Labtechnologies, Offenburg, Germany) or a Viewlux (Perkin-Elmer). The ratio of the emissions at 665 nm and at […] was taken as the measure for the amount of phosphorylated substrate. The data were normalised (enzyme reaction without inhibitor=0% inhibition, all other assay components but no enzyme=100% inhibition).
(Time-resolved FRET reads energy transfer from a long-lived donor to a nearby acceptor.)

Structures are written as SMILES. Bounds are passed on as bounds.

Regarding `C#CC(=O)N1CCC(Oc2cnccc2-c2[nH]c3cccnc3c2-c2ccccc2)C1` (racemic) [Example 117, 1-[(3RS)-3-{[4-(3-phenyl-1H-pyrrolo[3,2-b]pyridin-2-yl)pyridin-3-yl]oxy}pyrrolidin-1-yl]prop-2-yn-1-one], the 50% inhibitory concentration (IC50) is 4430 nM in assay [1], 296 nM in assay [2] and 90.2 nM in assay [3].
Take `CN(C)C/C=C/C(=O)N1CCC[C@H]1COc1cnccc1-c1[nH]c2cccnc2c1-c1cccc(C(F)(F)F)c1` [Example 96, (2E)-4-(dimethylamino)-1-[(2S)-2-{[(4-{3-[3-(trifluoromethyl)phenyl]-1H-pyrrolo[3,2-b]pyridin-2-yl}pyridin-3-yl)oxy]methyl}pyrrolidin-1-yl]but-2-en-1-one]: the IC50 came to 373 nM in assay [1], 22.1 nM in assay [2] and 3.45 nM in assay [3].
The matching figures for `C=CS(=O)(=O)N1CCC[C@H]1COc1cnccc1-c1[nH]c2c(C)ccnc2c1-c1ccccc1` [Example 136, 2-(3-{[(2S)-1-(ethenesulfonyl)pyrrolidin-2-yl]methoxy}pyridin-4-yl)-7-methyl-3-phenyl-1H-pyrrolo[3,2-b]pyridine]: 8.43 nM, 0.706 nM and 0.214 nM.
For `C=CC(=O)N(C)CCOc1cnccc1-c1[nH]c2cccnc2c1-c1cc(F)ccc1F` [Example 46, N-[2-({4-[3-(2,5-difluorophenyl)-1H-pyrrolo[3,2-b]pyridin-2-yl]pyridin-3-yl}oxy)ethyl]-N-methylprop-2-enamide], in that order: 1150 nM, 60.5 nM and 27.3 nM.
The matching figures for `C=CC(=O)N1CC[C@H]1COc1cnccc1-c1[nH]c2cccnc2c1-c1ccccc1` (single isomer, unassigned) [Example 139]: 2520 nM, 492 nM and 120 nM.
`C=CS(=O)(=O)N(C)CCOc1cnccc1-c1[nH]c2cccnc2c1-c1cccc(C(F)(F)F)c1` [Example 66, N-methyl-N-{2-[(4-{3-[3-(trifluoromethyl)phenyl]-1H-pyrrolo[3,2-b]pyridin-2-yl}pyridin-3-yl)oxy]ethyl}ethenesulfonamide]: the IC50 in assay [1] is 421 nM; in assay [2], 6.66 nM; in assay [3], 2.61 nM.
Regarding `C=CC(=O)N(C)CCOc1cnccc1-c1[nH]c2cccnc2c1-c1ccc2ccsc2c1` [Example 44, N-[2-({4-[3-(1-benzothiophen-6-yl)-1H-pyrrolo[3,2-b]pyridin-2-yl]pyridin-3-yl}oxy)ethyl]-N-methylprop-2-enamide], the IC50 was determined as 999 nM in assay [1], 64 nM in assay [2] and 21.1 nM in assay [3].
As to `C=CC(=O)N1CCC[C@H]1COc1cnccc1-c1[nH]c2cccnc2c1-c1cc(C)ccc1F` [Example 77, 1-{(2S)-2-[({4-[3-(2-fluoro-5-methylphenyl)-1H-pyrrolo[3,2-b]pyridin-2-yl]pyridin-3-yl}oxy)methyl]pyrrolidin-1-yl}prop-2-en-1-one], the IC50 in assay [1] was 27.4 nM; in assay [2], 1.97 nM; in assay [3], 0.853 nM.
For `C#CC(=O)N1CCC(Oc2cnccc2-c2[nH]c3cccnc3c2-c2cccc(C(F)(F)F)c2)C1` (racemic) [Example 123, 1-{(3RS)-3-[(4-{3-[3-(trifluoromethyl)phenyl]-1H-pyrrolo[3,2-b]pyridin-2-yl}pyridin-3-yl)oxy]pyrrolidin-1-yl}prop-2-yn-1-one], in that order: 832 nM, 701 nM and 173 nM.
On to `C=CS(=O)(=O)N(C)CCOc1cnccc1-c1[nH]c2cccnc2c1-c1cc(C)ccc1F` [Example 64, N-[2-({4-[3-(2-fluoro-5-methylphenyl)-1H-pyrrolo[3,2-b]pyridin-2-yl]pyridin-3-yl}oxy)ethyl]-N-methylethenesulfonamide], for which the IC50 in assay [1] amounted to 92.9 nM; in assay [2], 2.21 nM; in assay [3] it was 1.47 nM.
With `C=CS(=O)(=O)N(C)CCOc1cnccc1-c1[nH]c2cccnc2c1-c1cccc(CC)c1` [Example 63, N-[2-({4-[3-(3-ethylphenyl)-1H-pyrrolo[3,2-b]pyridin-2-yl]pyridin-3-yl}oxy)ethyl]-N-methylethenesulfonamide], the values for the IC50 in assay [1], in assay [2] and in assay [3] were 455 nM, 5.88 nM and 1.44 nM, respectively.
For `C=CS(=O)(=O)N1CCC(Oc2cnccc2-c2[nH]c3cccnc3c2-c2ccccc2)C1` (racemic) [Example 118, 2-(3-{[(3RS)-1-(ethenesulfonyl)pyrrolidin-3-yl]oxy}pyridin-4-yl)-3-phenyl-1H-pyrrolo[3,2-b]pyridine], in that order: 723 nM, 79.9 nM and 16.8 nM.
Regarding `C=CS(=O)(=O)N(C)CCOc1cnccc1-c1[nH]c2cccnc2c1-c1cc(OC)ccc1F` [Example 73, N-[2-({4-[3-(2-fluoro-5-methoxyphenyl)-1H-pyrrolo[3,2-b]pyridin-2-yl]pyridin-3-yl}oxy)ethyl]-N-methylethenesulfonamide], the IC50 in assay [1] worked out at 555 nM; in assay [2], 27.9 nM; in assay [3], 8.7 nM.
On to `C=CS(=O)(=O)N1CC[C@@H]1COc1cnccc1-c1[nH]c2cccnc2c1-c1ccccc1` (single isomer, unassigned) [Example 142], for which the results for the IC50 in assay [1], in assay [2] and in assay [3] were 16 nM, 0.262 nM and less than 0.0725 nM, respectively.
For `C=CC(=O)N(C)CCOc1cnccc1-c1[nH]c2cccnc2c1-c1cccc(CC)c1` [Example 45, N-[2-({4-[3-(3-ethylphenyl)-1H-pyrrolo[3,2-b]pyridin-2-yl]pyridin-3-yl}oxy)ethyl]-N-methylprop-2-enamide], the values for the IC50 in assay [1], in assay [2] and in assay [3] were 1280 nM, 76.3 nM and 24.6 nM, respectively.
The matching figures for `C=CC(=O)N1CCC(Oc2cnccc2-c2[nH]c3cccnc3c2-c2cccc(C(F)(F)F)c2)C1` (racemic) [Example 122, 1-{(3RS)-3-[(4-{3-[3-(trifluoromethyl)phenyl]-1H-pyrrolo[3,2-b]pyridin-2-yl}pyridin-3-yl)oxy]pyrrolidin-1-yl}prop-2-en-1-one]: 2590 nM, 775 nM and 123 nM.
